Test results taken from PMC6434189, “Peperomin E and its orally bioavailable analog induce oxidative stress-mediated apoptosis of acute myeloid leukemia progenitor cells by targeting thioredoxin reductase” (Redox Biology, 2019).

Assays:
[1] = target: T1, TrxR1 in KG-1a CD34+ cells (Homo sapiens, UniProt Q16881); experiment: Imaging TrxR1 activity in cells with TR-green; assay type: cell-based; settings: 2 and 6 μM, dose-dependent
T1 construct: image TrxR activity in intact isolated KG-1a CD34^+ cells; endogenous in cells; host or cells: KG-1a CD34+ cells
T1 sequence (Q16881 1-499 isoform Q16881-5): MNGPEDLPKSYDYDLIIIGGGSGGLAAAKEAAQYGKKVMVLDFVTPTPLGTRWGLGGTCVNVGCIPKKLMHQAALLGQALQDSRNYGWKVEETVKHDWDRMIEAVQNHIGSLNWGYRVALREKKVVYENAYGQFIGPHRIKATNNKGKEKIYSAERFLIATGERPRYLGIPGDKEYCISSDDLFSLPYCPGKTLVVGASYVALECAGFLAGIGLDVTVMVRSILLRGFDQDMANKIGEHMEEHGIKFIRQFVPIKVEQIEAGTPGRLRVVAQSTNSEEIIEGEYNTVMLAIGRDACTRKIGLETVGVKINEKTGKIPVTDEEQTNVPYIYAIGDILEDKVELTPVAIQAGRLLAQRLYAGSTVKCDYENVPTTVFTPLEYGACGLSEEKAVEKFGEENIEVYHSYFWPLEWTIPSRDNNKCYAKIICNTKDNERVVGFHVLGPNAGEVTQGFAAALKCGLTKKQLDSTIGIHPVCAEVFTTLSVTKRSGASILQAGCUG
Protocol: The specific fluorescence probe of TrxR – TR-green was employed to image TrxR activity in intact isolated KG-1a CD34^+ cells using previously published methods. Briefly, KG-1a CD34^+ cells (5 × 10^5) were incubated with 2 μM and 6 μM PepE or DMAPE (Previously reported TrxR1 inhibitor Parthenolide was used as the positive control, 0.1% DMSO was used as the negative control) in 6-well plates for 12 h, then 10 μM TR-green was added to each plate and incubated at 37 °C for 3 h. Fluorescence and brightfield images were captured using an inverted fluorescence microscope IX-73 (Olympus) with Metamorph software (Molecular Devices).

[2] = Stability of the analytes in rat plasma (UFLC-MS/MS); assay type: in vitro ADME; settings: for Freeze-thaw 3 cycles RE (%) / Store at -20℃ for 24h RE (%) / Store at auto-sampler RE (%): rat plasma, n=6; for stability in rat plasma samples: −20 °C for 15 days, three freeze/thaw cycles, room temperature 6 h, autosampler 4 °C 12 h
[3] = tested on: primary CD34+ AML cells; experiment: CCK-8 cell viability assay on primary CD34+ AML cells; assay type: cell-based, human; settings: for viability at 6 µM: Homo sapiens, 48 h, CCK-8, read-out: cells viable (average)
Protocol: (§1) The mononuclear cells were further enriched for CD34 positive cells using the MACS CD34 MicroBead kit following the manufacturer's protocol. Enriched CD34 cell-purity was measured by flow cytometry-based quantification of cells stained using an anti-CD34-FITC antigen. Isolated CD34^+ cells were pre-incubated in the IMDM-based serum-free media for 1 h before the addition of drugs. PepE was dissolved in DMSO to make a 100 mM stock solution and stored in aliquots at – 20 °C. The 100 mM stock solution was diluted with DMSO to 10 mM and then diluted with PBS to 1 mM before treating the cells at the indicated concentrations. DMAPE and Ara-C were diluted in PBS to 1 mM concentration before use.
(§2) Unless otherwise mentioned, 2 × 10^4 cells were seeded at 96-well plates (Corning, New York, USA) in the IMDM-based serum-free media for 1 h. Then, the cells were incubated with different concentrations of PepE and DMAPE at 37 °C in a 5% CO2 incubator for 48 h. At the end of the treatment, 10 μL CCK-8 solution was added to each well and incubated for an additional 2 h at 37 °C, and the absorbance at 450 nm was measured with a microplate reader (Thermo Scientific, Multiskan GO, Finland). Inhibition ratio (%) was calculated as [(absorbance of control − absorbance of the test sample)/absorbance of control] x 100%.

[4] = tested on: KG-1a CD34+ cells; experiment: Intracellular ROS measurement (DCFH-DA / DHE); assay type: cell-based, human; settings: 6 μM; blocked by NAC pretreatment
Protocol: KG-1a CD34^+ cells and other sorted primary APCs (5 × 10^5) were plated in FBS-free IMDM medium in 12-well plates (Corning) and were treated with 5 μM of Ara-C and 6 μM PepE or DMAPE in the presence or absence of 5 mM NAC for 2 h. The ROS indicator DCFH-DA (10 μM) or DHE (10 μM) in fresh FBS-free medium was added to each well, and further incubated in the dark for 30 min at 37 °C. The cells were visualized and photographed under an Olympus inverted fluorescence microscope IX-73 (Tokyo, Japan) with Metamorph software (Molecular Devices, Downingtown, PA, USA).

[5] = tested on: TrxR1 overexpressed KG-1a cells (ACTV cells); experiment: CCK-8 viability in TrxR1 overexpressed KG-1a cells; assay type: cell-based, human; settings: 48 h
Protocol: as §2
For TrxR1 overexpression experiment, KG-1a CD34^+ cells were seeded in a six-well plate at 2.5 × 10^5/well in antibiotic-free IMDM medium for 24 h, then cells were transfected with TrxR1 CRISPR activation plasmids (control CRISPR plasmids as a negative control) according to the manufacturer's instructions. Briefly, for each transfection, 0.15 ml of the Plasmid DNA solution (containing 3 μg of TrxR1 activation or control DNA plasmids) and 0.15 ml of diluted UltraCruz transfection reagent (Santa Cruz Biotech, sc-395739) were gently mixed and added to the cells. […] The activation efficiencies were evaluated by western blot and RT-qPCR analyses.

[6] = tested on: CD34+ NBM cells and hBMSCs; experiment: CCK-8 cell viability assay on normal CD34+ NBM cells and hBMSCs; assay type: cell-based, human; settings: 48 h; for toxicity on control CD34+ NBM cells and hBMSCs: 6 μM; for effects on NBM and hBMSC cells: 12 μM
Protocol: as §1, §2

[7] = tested on: Trx1 in KG-1a CD34+ cells; experiment: Trx1 redox state assay (PAO-Sepharose pull down); assay type: cell-based, human; settings: 5 μM, 24 h
Protocol: The redox state of Trx1 was determined using Liu's method. Phenylarsine oxide (PAO)-Sepharose was prepared by immobilization of PAO on Sepharose 4B according to Liu's report. The reduced form was pulled down on the Sepharose, while the oxidized form remained in the solution. Briefly, the KG-1a CD34^+ cells were treated with 5 μM PepE/DMAPE or vehicle control (DMSO) for 24 h. The cellular proteins were extracted by RIPA buffer and quantified by the Bradford method. The fully oxidized and reduced controls were prepared by incubating the non-treated cell lysate with diamide (2 mM) and TCEP (2 mM) for 1 h at 37 °C, respectively. The cell lysates were then incubated with PAO-sepharose on a rotating shaker for 1 h at room temperature. The supernatant was collected and the PAO-sepharose was washed with Tris-EDTA buffer. Then, the reduced Trx1 was eluted using Tris-EDTA buffer containing DPMS (10 mM). All samples were separated on SDS-PAGE and electrotransferred to PVDF membrane for western blot analyses. The bands were analyzed using Gel-pro 32 software.

Row | TR-green fluorescence intensities (cellular TrxR1 activity) [1] | Freeze-thaw 3 cycles RE (%) ([2]; 5 ng/ml) | Store at -20℃ for 24h RE (%) ([2]; 5 ng/ml) | Store at auto-sampler RE (%) ([2]; 5 ng/ml) | Freeze-thaw 3 cycles RE (%) ([2]; 200 ng/ml) | Store at -20℃ for 24h RE (%) ([2]; 200 ng/ml) | Store at auto-sampler RE (%) ([2]; 200 ng/ml) | Freeze-thaw 3 cycles RE (%) ([2]; 1000 ng/ml) | Store at -20℃ for 24h RE (%) ([2]; 1000 ng/ml) | Store at auto-sampler RE (%) ([2]; 1000 ng/ml) | stability in rat plasma samples [2] | SMILES | concentration range inducing apoptosis of human primary CD34+ AML cells [3] [µM] | viability at 6 µM [3] [%] | ROS level by DCFH-DA staining [4] | toxicity against ACTV cells vs CTRL ACTV cells [5] | toxicity on control CD34+ NBM cells and hBMSCs [6] | effects on NBM and hBMSC cells [6] | oxidized form of Trx [7]
1 | significant decrease | -11.5 | 4.4 | -10.1 | -13.2 | 11.9 | -10.5 | -3.6 | 1.7 | -7.2 | stable | C=C1C(=O)OC[C@H]1C(c1cc(OC)c2c(c1)OCO2)c1cc(OC)c2c(c1)OCO2 [PepE, Peperomin E] | 4 to 6 | 24 | burst of ROS | significant lower toxicity | reduced toxicities | modest effects | significantly increased
2 | significant decrease | -13.1 | -11.0 | -11.3 | 11.2 | 3.0 | -1.3 | -5.1 | 3.3 | -3.7 | stable | COc1cc(C(c2cc(OC)c3c(c2)OCO3)[C@@H]2COC(=O)[C@H]2CN(C)CCO)cc2c1OCO2 [DMAPE, (2S,3S)-6-Methyl (hydroxyethyl) amino-2,6-dihydropeperomin E] |  | 28.9 | burst of ROS | significant lower toxicity | reduced toxicities | relatively safe | significantly increased
